Active and inactive are the calls of the source. The calls are words filed in the database; no cut-off is given here.

Here are results for 4 compounds from ChEMBL document CHEMBL6103649, “Optimization of Cyclophilin B-Targeted Tri-vector Inhibitors for Novel MASH Treatments” (J Med Chem, 2025).

For series [1], the system named is Hepatocyte. As to the kind of experiment: Anti-MASH activity in fatty acid induced human iPSC derived Hepatocyte assessed as reduction in lipid level in hepatocyte at 10 uM measured after 48 hrs. Format: functional, cell-based.
Series [2] deals with Hepatocyte. Nature of the series: Anti-MASH activity in fatty acid induced human iPSC derived Hepatocyte assessed as reduction in lipid droplet size in hepatocyte at 10 uM measured after 48 hrs. The class given is functional, cell-based.
The nature of series [3]: Mutagenicity in Salmonella typhimurium TA98 at 5 to 100 mM incubated for 96 hrs in absence of rat liver s9 microsomes by Ames test. The class given is toxicity. As to conditions: salmonella enterica subsp. enterica serovar typhimurium, 100000 µM, dose 5-100 mM. (In general: The Ames test uses bacterial strains that need an amino acid and regain growth without it when mutated back.)

The nature of series [4]: Mutagenicity in Salmonella typhimurium TA98 at 5 to 100 mM incubated for 96 hrs in presence of rat liver s9 microsomes by Ames test. The class given is toxicity, Microsome. The conditions noted are these: salmonella enterica subsp. enterica serovar typhimurium, 100000 µM, dose 5-100 mM.
Series [5] in a line: Mutagenicity in Salmonella typhimurium TA100 at 5 to 100 mM incubated for 96 hrs in absence of rat liver s9 microsomes by Ames test. Format: toxicity. The conditions noted are these: salmonella enterica subsp. enterica serovar typhimurium, 100000 µM, dose 5-100 mM.
A short description of series [6]: Mutagenicity in Salmonella typhimurium TA100 at 5 to 100 mM incubated for 96 hrs in presence of rat liver s9 microsomes by Ames test. The class given is toxicity, Microsome. The conditions noted are these: salmonella enterica subsp. enterica serovar typhimurium, 100000 µM, dose 5-100 mM.
Series [7] in a line: Mutagenicity in Salmonella typhimurium TA1535 at 5 to 100 mM incubated for 96 hrs in absence of rat liver s9 microsomes by Ames test. The class given is toxicity. The conditions noted are these: salmonella enterica subsp. enterica serovar typhimurium, 100000 µM, dose 5-100 mM.
Series [8] is described as follows: Mutagenicity in Salmonella typhimurium TA1535 at 5 to 100 mM incubated for 96 hrs in presence of rat liver s9 microsomes by Ames test. The conditions noted are these: salmonella enterica subsp. enterica serovar typhimurium, 100000 µM, dose 5-100 mM. Format: toxicity, Microsome.
The nature of series [9]: Mutagenicity in Salmonella typhimurium TA1537 at 5 to 100 mM incubated for 96 hrs in absence of rat liver s9 microsomes by Ames test. The conditions noted are these: salmonella enterica subsp. enterica serovar typhimurium, 100000 µM, dose 5-100 mM. The class given is toxicity.
The nature of series [10]: Mutagenicity in Salmonella typhimurium TA1537 at 5 to 100 mM incubated for 96 hrs in presence of rat liver s9 microsomes by Ames test. Format: toxicity, Microsome. The conditions noted are these: salmonella enterica subsp. enterica serovar typhimurium, 100000 µM, dose 5-100 mM.
The next series is described as follows: in vitro. The conditions noted are these: human, Caco-2.
A short description of series [11]: Metabolic stability in human liver microsomes assessed as clearance. Format: ADME, Microsome. Background: Microsomes from liver hold many membrane-bound enzymes, among them those of drug oxidation.

Description for in vitro: Apparent permeability of the compound in human Caco-2 cells across apical to basolateral side

On to `CSc1ccccc1[C@H]1CCCN1C(=O)CNC(=O)N(Cc1ccc(N)c(Cl)c1)Cc1nnn(C)n1`, for which the result in the series on Hepatocyte [1] and in the series on Hepatocyte [2] was Active. In addition, the Activity result in [3], in series [4], in series [5], in series [6], in series [7] and in series [8] was “Non-toxic” each time. In addition, the Activity result in series [9] and in [10] was “Non-toxic” in each case. Further, the Papp A→B (commonly how fast a substance crosses the layer from the apical side) in the series “in vitro” turned out to be 5 ×10⁻⁶ cm/s.
For `Cn1nnc(CN(Cc2ccc(N)c(Cl)c2)C(=O)NCC(=O)N2CCC[C@@H]2c2ccccc2Br)n1`, the Activity entry in [3], in series [4], in series [5], in series [6], in series [7] and in [8] was “Non-toxic” in each case. In addition, the Activity entry in series [9] and in series [10] was “Non-toxic” throughout. In “in vitro”, this compound had a Papp A→B of 6.6 ×10⁻⁶ cm/s.
`CC(C)c1cc(Oc2c(Cl)cc(-n3nc(C#N)c(=O)[nH]c3=O)cc2Cl)n[nH]c1=O`: the outcome with Hepatocyte [1] and in the series with Hepatocyte [2] was Active.
Consider `CSc1ccccc1[C@H]1CCCN1C(=O)CNC(=O)N(Cc1cnc(N)nc1)Cc1ncc(C)s1`, for which the CLH in series [11] was found to be 60 µL/min/mg. Further, the Activity entry in series [3], in series [4], in series [5], in series [6], in series [7] and in series [8] was “Non-toxic” throughout. Besides, the Activity entry in series [9] and in [10] was “Non-toxic” in each case. In the series “in vitro”, the Papp A→B was found to be 0.8 ×10⁻⁶ cm/s.
